ChEMBL document CHEMBL1201862, “PubChem BioAssay data set” (2004)
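Exposure lasted 48 hours, with cells grown in 96-well plates and compounds tested at five concentrations. The concentration for 50% growth inhibition is given as GI50.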 Calls of active or inactive are those of the source. No stated cut-off is given here; in the data, active = GI50 up to about 1.1 µM and inactive = higher.

Key:
Assay in all cases: inhibition of tumour cell growth, NCI panel, 48 h
[1] = test system: 786-0
[2] = test system: A498
[3] = test system: A549
[4] = test system: ACHN
[5] = test system: BT-549
[6] = test system: CAKI-1
[7] = test system: CCRF-CEM
[8] = test system: COLO 205
[9] = test system: DU-145
[10] = test system: EKVX
[11] = test system: HCC 2998
[12] = test system: HCT-116
[13] = test system: HCT-15
[14] = test system: HL-60
[15] = test system: HOP-62
[16] = test system: HOP-92
[17] = test system: HT-29
[18] = test system: Hs-578T
[19] = test system: IGROV-1
[20] = test system: K562
[21] = test system: KM12
[22] = test system: LOX IMVI
[23] = test system: M14
[24] = test system: MCF7
[25] = test system: MDA-MB-231
[26] = test system: MDA-MB-435
[27] = test system: MDA-N
[28] = test system: MOLT-4
[29] = test system: Malme-3M
[30] = test system: NCI-H226
[31] = test system: NCI-H23
[32] = test system: NCI-H460
[33] = test system: NCI-H522
[34] = test system: NCI/ADR-RES
[35] = test system: OVCAR-3
[36] = test system: OVCAR-4
[37] = test system: OVCAR-5
[38] = test system: OVCAR-8
[39] = test system: PC-3
[40] = test system: RPMI-8226
[41] = test system: RXF 393
[42] = test system: SF-268
[43] = test system: SF-295
[44] = test system: SF-539
[45] = test system: SK-MEL-28
[46] = test system: SK-MEL-2
[47] = test system: SK-MEL-5
[48] = test system: SK-OV-3
[49] = test system: SN12C
[50] = test system: SNB-19
[51] = test system: SNB-75
[52] = test system: SR
[53] = test system: SW-620
[54] = test system: T47D
[55] = test system: TK-10
[56] = test system: U-251
[57] = test system: UACC-257
[58] = test system: UACC-62
[59] = test system: UO-31

C/C(=N\NC(=O)N/N=C(\C)c1ccccn1)c1ccccn1
GI50 [1]: 2.66 µM (inactive)
GI50 [2]: > 71.4 µM (inactive)
GI50 [3]: 4.88 µM (inactive)
GI50 [4]: 18.2 µM (inactive)
GI50 [5]: 1.15 µM (inactive)
GI50 [6]: 38.8 µM (inactive)
GI50 [7]: 9.18 µM (inactive)
GI50 [8]: 0.069 µM (active)
GI50 [9]: 43.5 µM (inactive)
GI50 [10]: 19.3 µM (inactive)
GI50 [11]: 0.52 µM (active)
GI50 [12]: 0.336 µM (active)
GI50 [13]: 37.8 µM
GI50 [14]: 0.0767 µM (active)
GI50 [15]: 0.512 µM (active)
GI50 [16]: 0.279 µM (active)
GI50 [17]: < 0.01 µM (active)
GI50 [18]: > 38.6 µM (inactive)
GI50 [19]: 6.59 µM (inactive)
GI50 [20]: 0.118 µM (active)
GI50 [21]: 0.139 µM (active)
GI50 [22]: 0.466 µM (active)
GI50 [23]: 0.205 µM (active)
GI50 [24]: 7.16 µM (inactive)
GI50 [25]: 0.333 µM (active)
GI50 [26]: 0.0526 µM (active)
GI50 [27]: 0.114 µM (active)
GI50 [28]: 0.555 µM (active)
GI50 [29]: > 100 µM (inactive)
GI50 [30]: 31 µM (inactive)
GI50 [31]: 0.15 µM (active)
GI50 [32]: 0.953 µM (active)
GI50 [33]: 67.1 µM (inactive)
GI50 [34]: 8.83 µM (inactive)
GI50 [35]: 45.1 µM (inactive)
GI50 [36]: 42 µM (inactive)
GI50 [37]: > 52.6 µM (inactive)
GI50 [38]: 9.75 µM (inactive)
GI50 [39]: 37.2 µM (inactive)
GI50 [40]: 0.0792 µM (active)
GI50 [41]: 28.1 µM (inactive)
GI50 [42]: 4.18 µM (inactive)
GI50 [43]: 0.308 µM (active)
GI50 [44]: 0.188 µM (active)
GI50 [45]: 1.92 µM (inactive)
GI50 [46]: > 100 µM (inactive)
GI50 [47]: 0.296 µM (active)
GI50 [48]: > 100 µM (inactive)
GI50 [49]: 2.16 µM (inactive)
GI50 [50]: 2.19 µM (inactive)
GI50 [51]: > 100 µM (inactive)
GI50 [52]: 0.394 µM (active)
GI50 [53]: 0.726 µM (active)
GI50 [54]: 35.2 µM (inactive)
GI50 [55]: 0.11 µM (active)
GI50 [56]: 20.3 µM (inactive)
GI50 [57]: > 100 µM (inactive)
GI50 [58]: 40.9 µM (inactive)
GI50 [59]: 22.8 µM (inactive)

CCOC(=O)c1oc2cc3c(c4c2c1-c1ccccc1N4C)C=CC(C)(C)O3
GI50 [1]: 7.06 µM (inactive)
GI50 [2]: 25.9 µM (inactive)
GI50 [3]: 24.5 µM (inactive)
GI50 [4]: 8.89 µM (inactive)
GI50 [5]: 23.6 µM (inactive)
GI50 [6]: 15.9 µM (inactive)
GI50 [7]: 12.4 µM (inactive)
GI50 [8]: > 65.3 µM (inactive)
GI50 [9]: 18.7 µM (inactive)
GI50 [10]: 15.3 µM (inactive)
GI50 [11]: 65.3 µM (inactive)
GI50 [12]: 14.2 µM (inactive)
GI50 [13]: 50.4 µM
GI50 [14]: 24.4 µM (inactive)
GI50 [15]: 6.84 µM (inactive)
GI50 [16]: 3.72 µM (inactive)
GI50 [17]: 9.51 µM (inactive)
GI50 [18]: 19.9 µM (inactive)
GI50 [19]: 15.8 µM (inactive)
GI50 [20]: 6.71 µM (inactive)
GI50 [21]: 16.3 µM (inactive)
GI50 [22]: 16.4 µM (inactive)
GI50 [23]: 40.2 µM (inactive)
GI50 [24]: 2.37 µM (inactive)
GI50 [25]: 10.4 µM (inactive)
GI50 [26]: 52.1 µM (inactive)
GI50 [27]: > 79.8 µM (inactive)
GI50 [28]: 14 µM (inactive)
GI50 [29]: 12 µM (inactive)
GI50 [30]: 16.8 µM (inactive)
GI50 [31]: 22.2 µM (inactive)
GI50 [32]: 20.5 µM (inactive)
GI50 [33]: 8.71 µM (inactive)
GI50 [34]: 6.3 µM (inactive)
GI50 [35]: 9.59 µM (inactive)
GI50 [36]: 6.58 µM (inactive)
GI50 [37]: 29.9 µM (inactive)
GI50 [38]: 5.85 µM (inactive)
GI50 [39]: 12.3 µM (inactive)
GI50 [40]: 12.8 µM (inactive)
GI50 [41]: 7.31 µM (inactive)
GI50 [42]: 13.5 µM (inactive)
GI50 [43]: 8.81 µM (inactive)
GI50 [44]: 6.4 µM (inactive)
GI50 [45]: 23.5 µM (inactive)
GI50 [46]: 26.6 µM (inactive)
GI50 [47]: 15.8 µM (inactive)
GI50 [48]: 13.4 µM (inactive)
GI50 [49]: 40.6 µM (inactive)
GI50 [50]: 14.7 µM (inactive)
GI50 [51]: 12.6 µM (inactive)
GI50 [52]: 0.56 µM (active)
GI50 [53]: 59.8 µM (inactive)
GI50 [54]: 16.9 µM (inactive)
GI50 [55]: 7.1 µM (inactive)
GI50 [56]: 7.5 µM (inactive)
GI50 [57]: 31.2 µM (inactive)
GI50 [58]: 11.9 µM (inactive)
GI50 [59]: 19.5 µM (inactive)
